Experimental data: PMC11999280, “Design and screening of novel endosomal escape compounds that enhance functional delivery of oligonucleotides in vitro” (Molecular Therapy. Nucleic Acids, 2025)

Assays:
Assay type in all cases: cell-based
[1] = test system: mCherry-GAL9 expressing HepG2 cells; assay: GAL9 recruitment assay, HepG2; conditions: calculated mean from >3 independent exp.
Summary of the method: (§1)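 Readout is GAL9 relocalization to damaged endosomes, scored as mCherry-GAL9 structures counted in confocal images after fixation in 4% paraformaldehyde and Hoechst 33342 nuclear staining. Compounds were applied in dose-response to stably expressing cells seeded one day earlier; three independent experiments with duplicate wells.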

[2] = test system: mCherry-GAL9 expressing SHSY5Y cells; assay: GAL9 recruitment assay, SHSY5Y; conditions: calculated mean from >3 independent exp.
Summary of the method: as §1

[3] = test system: mCherry-GAL9 expressing NCI-H358 cells; assay: GAL9 recruitment assay, NCI-H358; conditions: calculated mean from >3 independent exp.
Summary of the method: as §1

[4] = test system: HeLa_Luc705 cells (pLuc/705 splice-switching reporter); assay: Functional 705-SSO delivery, luciferase splice-switching assay; conditions: for Luciferase expression compared to reference: mean from >3 independent experiments
Summary of the method: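 Cells seeded at 10,000/well were pre-incubated 24 h with 1–2 μM 2′-O-methyl phosphorothioate 705-SSO, then exposed to endosomal escape enhancer at the stated concentrations. After 24 h, cells were lysed in 0.1% Triton X-100 and firefly luciferase luminescence was read as the splice-correction signal. LF2000 lipofection with 100–200 nM SSO served as transfection control.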

[5] = test system: mCherry-GAL9 expressing U2OS cells; assay: GAL9 recruitment assay, U2OS; conditions: calculated mean from >3 independent exp.
Summary of the method: as §1

[6] = test system: mCherry-GAL9 expressing HEK293 cells; assay: GAL9 recruitment assay, HEK293; conditions: calculated mean from >3 independent exp.
Summary of the method: as §1

[7] = test system: mCherry-GAL9 expressing HuH7 cells; assay: GAL9 recruitment assay, HuH7; conditions: calculated mean from >3 independent exp.
Summary of the method: as §1

[8] = test system: mCherry-GAL9 expressing HeLa cells; assay: GAL9 recruitment assay, HeLa; conditions: calculated mean from >3 independent exp.
Summary of the method: as §1

[9] = test system: mCherry-GAL9 expressing 16HBE cells; assay: GAL9 recruitment assay, 16HBE; conditions: calculated mean from >3 independent exp.
Summary of the method: as §1

[10] = test system: cell lines carrying an mCherry-GAL9-reporter; assay: GAL9 puncta formation upon EEE dose escalation (images); conditions: dose escalation 0.31 to 10 μM
Description: We further studied endosomal leakage by quantifying GAL9 recruitment upon EEE dose escalation, from 0.31 to 10 μM. For this purpose, we used cell lines carrying an mCherry-GAL9-reporter, where endosomal rupture could be quantified by measuring GAL9 clustering as a puncta event representative of endosomal remodeling.
Experiments assessing GAL9 localization as an indicator for endosomal remodeling were performed as previously described[15] using 8× stablemCherry-GAL9 expressing cell lines, SHSY5Y, U2OS, 16HBE, NCI-H358, HuH7, HepG2, HEK293, and HeLa. For mCherry-GAL9 recruitment, 3,000 or 6,500 cells/well (depending upon cell line) were seeded into 384-well CellCarrier Ultra plates 24 h prior to treatment (PerkinElmer, catalog no. 6007558). An Echo 655T acoustic dispenser (Labcyte) was used for EEE dose-response preparation by transferring to the cell plate. At assay endpoints, cells were PBS washed, 4% paraformaldehyde fixed at room temperature […] (VWR, catalog no. 9713.1000), and nuclei stained with PBS +1 μg/mL Hoechst 33342 (Thermo Fisher Scientific, catalog no. H21492).
Imaging was performed using a spinning-disk confocal microscope (Yokogawa: CV8000) with a ×20w objective (numerical aperture 1.0). Cells and mCherry-GAL9 structure identification and quantification were done using Columbus image-analysis software (PerkinElmer version 2.9.0). […]

For `COc1nn(C2CCN(C)CC2)cc1Nc1ncc(F)c(-n2ccc3c(C#N)cccc32)n1` [EEE8], the “Gal9 response compared to reference” value ([1]; EEE 0.31 µM) was 0.007, the “Gal9 response compared to reference” value ([1]; EEE 0.62 µM) was 0.008 and the “Gal9 response compared to reference” value ([1]; EEE 1.25 µM) was 0.011. For the same compound, the “Gal9 response compared to reference” value ([1]; EEE 2.5 µM) was 0.075, the “Gal9 response compared to reference” value ([1]; EEE 5 µM) was 0.511 and the “Gal9 response compared to reference” value ([1]; EEE 10 µM) was 0.529. The “Gal9 response compared to reference” value ([2]; EEE 0.31 µM) was 0.014, the “Gal9 response compared to reference” value ([2]; EEE 0.62 µM) was 0.082 and the “Gal9 response compared to reference” value ([2]; EEE 1.25 µM) was 0.694. The “Gal9 response compared to reference” value ([2]; EEE 2.5 µM) was 0.629, the “Gal9 response compared to reference” value ([2]; EEE 5 µM) was 0.567 and the “Gal9 response compared to reference” value ([2]; EEE 10 µM) was 0.278. The “Gal9 response compared to reference” value ([3]; EEE 0.31 µM) was 0.017, the “Gal9 response compared to reference” value ([3]; EEE 0.62 µM) was 0.032 and the “Gal9 response compared to reference” value ([3]; EEE 1.25 µM) was 0.148. The “Gal9 response compared to reference” value ([3]; EEE 2.5 µM) was 0.553, the “Gal9 response compared to reference” value ([3]; EEE 5 µM) was 0.623 and the “Gal9 response compared to reference” value ([3]; EEE 10 µM) was 0.457. For the same compound, the “Luciferase expression compared to reference” value ([4]; HeLa-Luc705 + 1 µM SSO, EEE 0.5 µM) was 0.717, the “Luciferase expression compared to reference” value ([4]; HeLa-Luc705 + 1 µM SSO, EEE 2 µM) was 2.253 and the “Luciferase expression compared to reference” value ([4]; HeLa-Luc705 + 1 µM SSO, EEE 4 µM) was 11.227. For the same compound, the “Luciferase expression compared to reference” value ([4]; HeLa-Luc705 + 1 µM SSO, EEE 5 µM) was 31.147, the “Luciferase expression compared to reference” value ([4]; HeLa-Luc705 + 2 µM SSO, EEE 5 µM) was 52.876 and the “EEE dose required to show splice-switching above 10-fold normalized to SSO only” value ([4]; dose-response, 1 μM SSO) was 4.5 μM. For the same compound, the “Gal9 response compared to reference” value ([5]; EEE 0.31 µM) was 0.012, the “Gal9 response compared to reference” value ([5]; EEE 0.62 µM) was 0.013 and the “Gal9 response compared to reference” value ([5]; EEE 1.25 µM) was 0.029. For the same compound, the “Gal9 response compared to reference” value ([5]; EEE 2.5 µM) was 0.234, the “Gal9 response compared to reference” value ([5]; EEE 5 µM) was 0.490 and the “Gal9 response compared to reference” value ([5]; EEE 10 µM) was 0.563. For the same compound, the “Gal9 response compared to reference” value ([6]; EEE 0.31 µM) was 0.027, the “Gal9 response compared to reference” value ([6]; EEE 0.62 µM) was 0.052 and the “Gal9 response compared to reference” value ([6]; EEE 1.25 µM) was 0.309. The “Gal9 response compared to reference” value ([6]; EEE 2.5 µM) was 0.657, the “Gal9 response compared to reference” value ([6]; EEE 5 µM) was 0.605 and the “Gal9 response compared to reference” value ([6]; EEE 10 µM) was 0.329. The “Gal9 response compared to reference” value ([7]; EEE 0.31 µM) was 0.010, the “Gal9 response compared to reference” value ([7]; EEE 0.62 µM) was 0.016 and the “Gal9 response compared to reference” value ([7]; EEE 1.25 µM) was 0.078. For the same compound, the “Gal9 response compared to reference” value ([7]; EEE 2.5 µM) was 0.313, the “Gal9 response compared to reference” value ([7]; EEE 5 µM) was 0.228 and the “Gal9 response compared to reference” value ([7]; EEE 10 µM) was 0.160. For the same compound, the “Gal9 response compared to reference” value ([8]; EEE 0.31 µM) was 0.004, the “Gal9 response compared to reference” value ([8]; EEE 0.62 µM) was 0.009 and the “Gal9 response compared to reference” value ([8]; EEE 1.25 µM) was 0.105. The “Gal9 response compared to reference” value ([8]; EEE 2.5 µM) was 0.319, the “Gal9 response compared to reference” value ([8]; EEE 5 µM) was 0.459 and the “Gal9 response compared to reference” value ([8]; EEE 10 µM) was 0.198. The “Gal9 response compared to reference” value ([9]; EEE 0.31 µM) was 0.011, the “Gal9 response compared to reference” value ([9]; EEE 0.62 µM) was 0.035 and the “Gal9 response compared to reference” value ([9]; EEE 1.25 µM) was 0.180. For the same compound, the “Gal9 response compared to reference” value ([9]; EEE 2.5 µM) was 0.503, the “Gal9 response compared to reference” value ([9]; EEE 5 µM) was 0.638 and the “Gal9 response compared to reference” value ([9]; EEE 10 µM) was 0.492. For the same compound, the “EEE concentration with clear GAL9 puncta formation” value [10] was at least 1.25 µM.
